We go through eight compounds from article PMC11747885, “Potent inhibitors of the human RNA ligase Rlig1 highlights its role in RNA integrity maintenance under oxidative cellular stress” (Chemical Science, 2025).

In brackets after ≈: the same amount, converted by molar mass. Several values for one entry are separate records, joined by “and”; a condition that tells them apart may be missing. Equal entries are not always repeated. Where two headings read alike, the source gives them in different places.

Series [1] concerns the target T1, Rlig1-AMP (Homo sapiens, UniProt Q8N999).
T1 construct: made in house; host or cells: E. coli BL21 (DE3), pET15b-Rlig1
Kind of series: FRET-based high-throughput screening of inhibitors for Rlig1-AMP. Type of series: biochemical. To be noted: for 1-D Distance: difference of raw data w/o and w enzyme; for Raw data [w Enyzm]: with enzyme; for Raw data [w/o Enzym]: without enzyme.

The conditions of series [2]: ref MedChemExpress, cited from earlier work; for solubility, DMSO: in DMSO; for solubility, H2O: in H2O.
The conditions of series [3]: ref MedChemExpress, cited from earlier work.
Setting [4] is: sheet HTS hits, MedChemExpress library.
Where [5] appears, read: HTS hits, normalized value (npi).

T1 sequence (Q8N999 whole entry): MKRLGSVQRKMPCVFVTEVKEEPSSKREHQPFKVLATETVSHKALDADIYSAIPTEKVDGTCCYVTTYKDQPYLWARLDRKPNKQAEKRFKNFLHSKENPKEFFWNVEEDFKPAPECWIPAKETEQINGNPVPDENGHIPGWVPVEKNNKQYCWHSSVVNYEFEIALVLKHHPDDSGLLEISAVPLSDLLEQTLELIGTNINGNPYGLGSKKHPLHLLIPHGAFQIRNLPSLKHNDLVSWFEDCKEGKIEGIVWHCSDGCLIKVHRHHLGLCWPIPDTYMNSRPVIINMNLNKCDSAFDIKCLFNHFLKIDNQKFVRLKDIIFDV

`COc1cccc2c1C(=O)c1c(O)c3c(c(O)c1C2=O)C[C@@](O)(C(C)=O)C[C@@H]3O[C@H]1C[C@H](N)[C@H](O)[C@H](C)O1.Cl` [Daunorubicin (hydrochloride)]: the “1-D Distance.npi” value in series [1] (setting [4]) is reported as 94.9773. For the same compound, in series [1] (sheet HTS hits), the “1-D Distance” value stood at 667, the “Raw data [w Enyzm]” value stood at 1522 and the “Raw data [w/o Enzym]” value is recorded as 2189. Further, in series [2], the “solubility, DMSO” value was 50000 µg/mL and the “solubility, H2O” value is not below 34000 µg/mL.
With `CCn1c(=O)/c(=C2\Sc3ccccc3N2C)s/c1=C\c1cccc[n+]1CC.[Cl-]` [MKT-077], in series [1] (HTS hits), the “1-D Distance” value is given as 170, the “Raw data [w Enyzm]” value amounted to 657 and the “Raw data [w/o Enzym]” value is listed as 827. The “1-D Distance.npi” value in series [1] (setting [5]) amounted to 104.232. Further, the solubility in series [3] (DMSO) is 56.67 mg/mL and 131.18 mM. Also, the solubility in series [3] (H2O) was less than 0.1 mg/mL.
As for `O=C1c2ccccc2-c2nc3nnnn3nc21.O=C1c2ccccc2-c2nn3nnnc3nc21` [KP372-1], in series [1] (HTS hits), the “1-D Distance” value worked out at 385, the “Raw data [w Enyzm]” value amounted to 14308 and the “Raw data [w/o Enzym]” value was 13923. The “1-D Distance.npi” value in series [1] (setting [5]) amounted to 99.8878. The solubility in series [3] (DMSO) was 17.86 mg/mL and 39.83 mM.
As to `Cn1nc(-c2ccc(C(F)(F)F)cc2)nc2c(=O)n(C)c(=O)nc1-2` [Walrycin B], in series [1] (HTS hits), the “1-D Distance” value was 868, the “Raw data [w Enyzm]” value turned out to be 16245 and the “Raw data [w/o Enzym]” value is recorded as 17113. The “1-D Distance.npi” value in series [1] (setting [5]) came to 89.8871. Further, the solubility in series [3] (DMSO) is 11.5 mg/mL and 34.10 mM.
Consider `CO[C@H]1/C=C/O[C@@]2(C)Oc3c(C)c(O)c4c(O)c(c(/C=N/N5CCN(C)CC5)c(O)c4c3C2=O)NC(=O)/C(C)=C\C=C\[C@H](C)[C@H](O)[C@@H](C)[C@@H](O)[C@@H](C)[C@H](OC(C)=O)[C@@H]1C` [Rifampicin], for which, in series [1] (sheet HTS hits), the “1-D Distance” value came out at 268, the “Raw data [w Enyzm]” value is 2212 and the “Raw data [w/o Enzym]” value was determined as 2480. In addition, in series [2], the “solubility, DMSO” value was 50000 µg/mL (≈ 60.8 mM) and the “solubility, H2O” value was 1000 µg/mL (≈ 1.22 mM).
Regarding `CC1=NN(c2ccc(C)c(C)c2)C(=O)/C1=N\Nc1cccc(-c2cccc(C(=O)O)c2)c1O` [Eltrombopag], in series [1] (sheet HTS hits), the “1-D Distance” value turned out to be 1388, the “Raw data [w Enyzm]” value came to 3742 and the “Raw data [w/o Enzym]” value is 5130. Besides, in series [2], the “solubility, DMSO” value was 8330 µg/mL (≈ 18.8 mM) and the “solubility, H2O” value is less than 100 µg/mL.
Consider `O=C1c2ccccc2-c2nc3nonc3nc21` [SMER3], for which the “1-D Distance.npi” value in series [1] (setting [4]) amounted to 102.522. Also, in series [1] (sheet HTS hits), the “1-D Distance” value stood at 157, the “Raw data [w Enyzm]” value turned out to be 13928 and the “Raw data [w/o Enzym]” value is recorded as 13771. Also, the “solubility, DMSO” value in series [2] is reported as “DMSO : 12.5 mg/mL (55.76 mM; Need ultrasonic)”.
As for `Cc1[nH]c(/C=C2\C(=O)Nc3ccc(S(=O)(=O)Cc4c(Cl)cccc4Cl)cc32)c(C)c1C(=O)N1CCC[C@@H]1CN1CCCC1` [PHA-665752], in series [1] (HTS hits), the “1-D Distance” value is reported as 1429 and the “Raw data [w Enyzm]” value worked out at 5362. Also, the solubility in series [3] (DMSO) is 50 mg/mL and 77.93 mM.
